The values that follow come from publication PMC6667648 (Frontiers in Microbiology, 2019).

Converted amounts (≈) assume the structure as drawn. “And” between values parts separate entries of the source, which are not always exact repeats. Identical values can stand only once.

One assay deals with C. parapsilosis Y-1761. As to the kind of experiment: microbe, parasite or virus in culture. It counts as cell-based. Conditions: Lodderomyces parapsilosis, Y1761, 24-h incubation, mean of 3 replicates from 2 independent experiments, read-out: Minimum Inhibitory Concentration (MIC). The procedure: (§1) Strains were obtained from American Type Culture Collection (ATCC, Manassas, VA) or the clinical isolate collection at Trideum Biosciences (Frederick, MD, USA). Bioluminescence strains of P. aeruginosa 19660, transfected with the Xen5 luciferase gene, and S. aureus ATCC® 49525™ (Wright), transfected with the Xen36 luciferase gene, were obtained from Perkin Elmer (Hopkinton, MA).
(§2) A single colony was aseptically picked from an agar overlay and released in 25–30 mL of pre-warmed trypticase soy broth in a culture flask. Each culture was incubated overnight in a 37°C incubator. […] Pathogen growth was measured by absorbance at 600 nm. Four replicas were included for each test agent concentration. […]

For the next assay, the system named is C. parapsilosis Y-1763. As to the kind of experiment: microbe, parasite or virus in culture. It counts as cell-based. Conditions: Lodderomyces parapsilosis, Y1763, 24-h incubation, mean of 3 replicates from 2 independent experiments, read-out: Minimum Inhibitory Concentration (MIC). As to the method:
as §1, §2

The subject of another assay is S. epidermis ATCC 51625. Briefly: microbe, parasite or virus in culture. The format is cell-based, S. epidermidis. Conditions: Staphylococcus epidermidis, ATCC51625, 24 h, read-out: Minimum Inhibitory Concentration (MIC). As to the method:
as §1, §2

Another assay relates to P. aeruginosa ATCC 27853. As to the kind of experiment: microbe, parasite or virus in culture. It counts as cell-based, Pseudomonas aeruginosa. Conditions: Pseudomonas aeruginosa, ATCC27853, 24 h, read-out: Minimum Inhibitory Concentration (MIC). As to the method: as §1, §2
The subject of the next assay is P. aeruginosa 6186. Briefly: microbe, parasite or virus in culture. Conditions: Pseudomonas aeruginosa, 6186, 24 h, read-out: Minimum Inhibitory Concentration (MIC). The format is cell-based, Pseudomonas aeruginosa. The procedure:
as §1, §2

The subject of the next assay is P. aeruginosa ATCC 19660. Briefly: microbe, parasite or virus in culture. To be noted: Pseudomonas aeruginosa, ATCC19660, 24 h, read-out: Minimum Inhibitory Concentration (MIC). The format is cell-based, Pseudomonas aeruginosa. As to the method:
as §1, §2

The next assay has as its system A. baumannii 6838. Briefly: microbe, parasite or virus in culture. The format is cell-based, Acinetobacter baumannii. Conditions: Acinetobacter baumannii, 6838, 24 h, read-out: Minimum Inhibitory Concentration (MIC). As to the method: as §1, §2
The test system of another assay is A. baumannii 6043. Briefly: microbe, parasite or virus in culture. It counts as cell-based, Acinetobacter baumannii. Conditions: Acinetobacter baumannii, 6043, 24 h, read-out: Minimum Inhibitory Concentration (MIC). As to the method:
as §1, §2

The next assay concerns A. baumannii ATCC 17978. Briefly: microbe, parasite or virus in culture. It counts as cell-based, Acinetobacter baumannii. Conditions: Acinetobacter baumannii, ATCC17978, 24 h, read-out: Minimum Inhibitory Concentration (MIC). As to the method:
as §1, §2

The subject of another assay is S. aureus 6061. As to the kind of experiment: microbe, parasite or virus in culture. To be noted: Staphylococcus aureus, 6061, 24 h, read-out: Minimum Inhibitory Concentration (MIC). It counts as cell-based, Staphylococcus aureus. As to the method: as §1, §2
A further assay relates to MRSA 6381. Briefly: microbe, parasite or virus in culture. The format is cell-based, Staphylococcus aureus. Conditions: Staphylococcus aureus, MRSA, 24 h, read-out: Minimum Inhibitory Concentration (MIC). The procedure:
as §1, §2

A further assay has as its system S. aureus B-767. As to the kind of experiment: microbe, parasite or virus in culture. The format is cell-based, Staphylococcus aureus. To be noted: Staphylococcus aureus, B767, 24 h, read-out: Minimum Inhibitory Concentration (MIC). As to the method:
as §1, §2

A further assay has as its system MRSA 6313. As to the kind of experiment: microbe, parasite or virus in culture. It counts as cell-based, Staphylococcus aureus. To be noted: Staphylococcus aureus, MRSA, 24 h, read-out: Minimum Inhibitory Concentration (MIC). The procedure: as §1, §2
The next assay concerns MRSA ATCC 33592. As to the kind of experiment: microbe, parasite or virus in culture. It counts as cell-based, Staphylococcus aureus. To be noted: Staphylococcus aureus, 24 h, read-out: Minimum Inhibitory Concentration (MIC). As to the method:
as §1, §2

Another assay deals with E. cloacae 6054. Briefly: microbe, parasite or virus in culture. The format is cell-based. To be noted: Enterobacter cloacae, 6054, 24 h, read-out: Minimum Inhibitory Concentration (MIC). The procedure:
as §1, §2

For a further assay, the system named is E. cloacae 6053. Briefly: microbe, parasite or virus in culture. The format is cell-based. To be noted: Enterobacter cloacae, 6053, 24 h, read-out: Minimum Inhibitory Concentration (MIC). As to the method: as §1, §2
Assay [1] deals with bioluminescent S. aureus 49525. As to the kind of experiment: Bioluminescence time-kill assay. The format is cell-based, Staphylococcus aureus. Conditions: antibiotics after 30 min incubation, triplicates, two independent experiments. The procedure:
as §1
(§3) Non-invasive real-time evaluation of viability, mammalian, and bacterial cells, was performed using bioluminescent human keratinocytes (HaCaT, AddexBio, San Diego, CA) and murine L929 fibroblast cells (ATCC, Manassas, VA). The bioluminescent variants were constructed by transfection with a luciferase gene (RediFect Red-Fluc-Puromycin, Catalog #CL596002) (Hamblin et al., [2003]). […] Each concentration was performed in triplicate. Bioluminescence imaging was performed at pre-specified times (0, 15, and 30 min and 1, 3, 5, 8, and 24 h) and compared to concurrently run vehicle-controls. The 96-well plate was positioned on the stage (12.5-cm field of view) within the in vivo Imaging System (IVIS) imaging system (Caliper Life Sciences, Inc., Hopkinton, MA, USA), with an open emission filter, binning of 4, and f-stop 1, and a 1-min exposure time. The resultant photons emitted from the live cells were quantified using Living Image® software (version 4.3, Caliper Life Sciences, Inc.). […]

In the next assay the test system is K. pneumonia ATCC 10031. Briefly: microbe, parasite or virus in culture. Conditions: Klebsiella pneumoniae, ATCC10031, 24 h, read-out: Minimum Inhibitory Concentration (MIC). It counts as cell-based, Klebsiella pneumoniae. The procedure:
as §1, §2

The next assay concerns K. pneumonia 6066. As to the kind of experiment: microbe, parasite or virus in culture. It counts as cell-based, Klebsiella pneumoniae. To be noted: Klebsiella pneumoniae, 6066, 24 h, read-out: Minimum Inhibitory Concentration (MIC). As to the method:
as §1, §2

In another assay the test system is K. pneumonia 6069. Briefly: microbe, parasite or virus in culture. Conditions: Klebsiella pneumoniae, 6069, 24 h, read-out: Minimum Inhibitory Concentration (MIC). The format is cell-based, Klebsiella pneumoniae. The procedure: as §1, §2
Assay [2] relates to bioluminescent P. aeruginosa 19660. As to the kind of experiment: Bioluminescence time-kill assay. It counts as cell-based, Pseudomonas aeruginosa. To be noted: antibiotics after 30 min incubation, triplicates, two independent experiments. As to the method: as §1, §3
For assay [3], the system named is mature (120 h) MRSA ATCC 1556 biofilm. The format is cell-based, Staphylococcus aureus. To be noted: ATCC 1556, 120 h.
In assay [4] the test system is 6 hr MRSA ATCC 1556 biofilm. The format is cell-based, Staphylococcus aureus. To be noted: ATCC 1556, 6 h.
In assay [5] the test system is preformed C. albicans biofilm. To be noted: ref Woodburn et al., under review; cited from earlier work.

On to `C[C@@H]1[C@H](O)[C@@H](C)/C=C/C=C/C=C/C=C/C=C/C=C/C=C/[C@H](O[C@@H]2O[C@H](C)[C@@H](O)[C@H](N)[C@@H]2O)C[C@@H]2O[C@](O)(C[C@@H](O)C[C@@H](O)[C@H](O)CC[C@@H](O)C[C@@H](O)CC(=O)O[C@H]1C)C[C@H](O)[C@H]2C(=O)O` [Amphotericin b, amphotericin B], for which the MIC in the assay on C. parapsilosis Y-1761 is 1 µM and 1.08 µg/mL; in the assay with C. parapsilosis Y-1763 it was 1 µM and 1.08 µg/mL.

Take `CN[C@H](CC(C)C)C(=O)N[C@H]1C(=O)N[C@@H](CC(N)=O)C(=O)N[C@H]2C(=O)N[C@H]3C(=O)N[C@H](C(=O)N[C@H](C(=O)O)c4cc(O)cc(O)c4-c4cc3ccc4O)[C@H](O)c3ccc(c(Cl)c3)Oc3cc2cc(c3O[C@@H]2O[C@H](CO)[C@@H](O)[C@H](O)[C@H]2O[C@H]2C[C@](C)(N)[C@H](O)[C@H](C)O2)Oc2ccc(cc2Cl)[C@H]1O` [Vancomycin, vancomycin]: the MIC in the assay with S. epidermis ATCC 51625 is 2.1 µM (≈ 3.04 µg/mL); in the assay with P. aeruginosa ATCC 27853 it was more than 88.3 µM; with P. aeruginosa 6186, more than 88.3 µM; in the assay with P. aeruginosa ATCC 19660 it was more than 88.3 µM; in the assay on A. baumannii 6838, more than 88.3 µM; with A. baumannii 6043, more than 88.3 µM. The MIC was more than 88.3 µM with A. baumannii ATCC 17978; 2.1 µM (≈ 3.04 µg/mL) in the assay on S. aureus 6061; 1.4 µM (≈ 2.03 µg/mL) with MRSA 6381; more than 88.3 µM in the assay with S. aureus B-767; 1.4 µM (≈ 2.03 µg/mL) with MRSA 6313; 1.4 µM (≈ 2.03 µg/mL) with MRSA ATCC 33592. For the same compound, the MIC with E. cloacae 6054, in the assay with E. cloacae 6053, in the assay with K. pneumonia ATCC 10031, in the assay with K. pneumonia 6066 and with K. pneumonia 6069 was more than 88.3 µM throughout. For the same compound, the “Bactericidal activity in time-kill assay” value in assay [1] and in assay [2] was “no trace of antibacterial activity” throughout.

Turning to `CCCCCCCCCC(=O)N[C@@H](Cc1c[nH]c2ccccc12)C(=O)N[C@H](CC(N)=O)C(=O)N[C@@H](CC(=O)O)C(=O)N[C@@H]1C(=O)NCC(=O)N[C@@H](CCCN)C(=O)N[C@@H](CC(=O)O)C(=O)N[C@H](C)C(=O)N[C@@H](CC(=O)O)C(=O)NCC(=O)N[C@H](CO)C(=O)N[C@@H]([C@H](C)CC(=O)O)C(=O)N[C@@H](CC(=O)c2ccccc2N)C(=O)O[C@@H]1C` [daptomycin], the “EC90 (concentration to reduce biofilm by 90%)” value in [3] is ~ 100 μg/mL. In addition, the “EC90, biofilm CFU” value in assay [4] was more than 100 µg/mL.

Turning to `OC(Cn1cncn1)(Cn1cncn1)c1ccc(F)cc1F` [fluconazole], in [5], the “Killing fungi in preformed C. albicans biofilm and preventing biofilm formation” value is “markedly ineffective”.
